Results taken from patent publication US20240415819A1, “MACROCYCLIC COMPOUNDS AS PROTEASOME SUBUNIT BETA TYPE-5 INHIBITORS” (Lead Discovery Center GmbH, priority 2021, published 2024).
pIC50: −log10 of the molar value.

Columns and labels:
[1] = target: T1, β5 subunit of the human immunoproteasome (IPS) (Homo sapiens, UniProt P28062); assay: β5 inhibition assay, human immunoproteasome (Suc-LLVY-AMC); format: biochemical; details: IC50 class, Suc-LLVY-AMC substrate
T1 construct: purchased Boston Biochem E-370
In short: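 β5 activity is read as liberated AMC fluorescence (355/460 nm) after 4 h dark reaction at RT with 22.6 μM Suc-LLVY-AMC, stopped by 1 μM bortezomib. Beforehand, 1 nM human IPS and compound sat 10 min at RT in HEPES pH 7.5 buffer containing NaCl, 0.02% SDS and DTT.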

[2] = system: HT-29 cells; assay: CellTiter-Glo luminescent cell viability assay with HT-29 cells (72h incubation); format: cell-based, human; details: Homo sapiens, HT-29, HT29 cells, read-out: CTG HT29
In short: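 Viability read as CellTiter-Glo luminescence after 72 h compound exposure, with 10 μM staurosporine and DMSO as control wells. Seeding 400 cells per well, compound added 24 h post-plating; IC50 from curve fitting.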

[3] = target: T2, β5 subunit of the human constitutive proteasome (CPS) (Homo sapiens, UniProt P28074); assay: β5 inhibition assay, human constitutive proteasome (Suc-LLVY-AMC); format: biochemical; details: IC50 class, Suc-LLVY-AMC substrate
T2 construct: purchased Boston Biochem E-360
Description: The enzymatic activity of the β5 subunit of the human constitutive proteasome (CPS) is analyzed. In another assay, which differs from the assay of the human constitutive proteasome only in using the human immunoproteasome (IPS) the enzymatic activity of the β5 subunit of the human immunoproteasome (IPS) is analyzed. […] Inhibition is indicated as IC50 [nM] (“-”=not measured).

[4] = system: Karpas cells; assay: Glo assay of Karpas cells (Table 3; ProteasomeGlo plating scheme); format: cell-based; details: read-out: Pglo Karpas
Source text: Inhibition is indicated as IC50 [nM] (“-”=not measured). […] • Chymotrypsin-Like Cell-Based Proteasome-GloTM Assay (Promega; […]) • Cell culture 384-well plates (Greiner BioOne; 781080) • Dispensing cassette, MultiDrop Standard tube dispensing cassette (Thermo Scientific; 24072670) • DPBS (Pan BioTech; P04-36500) • Cell culture 384-well plates (Greiner BioOne; 781080) • CPD source plate: diamond-shape plate (Labcyte; LP-0200) • Intermediate plate (Labcyte; P-05525) [table] • a. Remove the plates with cells from the incubator. • b. Take all the plates including the compound plate, intermediate plate and Staurosporine plate to the ECHO. • c. Click on “Open” in the ECHO software and select the protocol “QLI5_25ul_30 uM-Grenier”. • d. Follow the on-screen prompts and instructions once you click “Start” to insert the compound plate, intermediate plate and destination plates. • e. Change the final number of destination plates on the program. • f. Follow the on-screen prompts and instructions once you click “Start” to load the Staurosporine and destination plates. • g. Once all the compounds, DMSO and Staurosporine have been transferred, place the destination plates in a wet tissue box. • h. Place the destination plates back into the incubator and incubate at 37° C., 5% CO2 for 105 minutes. • i. Re-seal all the compound+Stauro diamond and intermediate plates and store in the dark. Chymotrypsin like ProteasomeGlo Assay • 1. Thaw the components of the ProteasomeGlo assay at room temperature including the ProteasomeGlo Buffer, the lyophilized Luciferin Detection Reagent and the Suc-LLVY-Glo Substrate. • 2. Reconstitute the Luciferin Detection Reagent in the amber coloured bottle by adding 50 ml of the ProteasomeGlo Buffer. • 3. Vortex the Suc-LLVY-Glo Substrate briefly to reconstitute the Substrate well. • 4. Spin down the Substrate and add 250 μl of the Substrate to the reconstituted Luciferin Detection Reagent from step 2. • 5. Briefly vortex the amber bottle with the mix to prepare a homogenous solution. • 6. Place the mix prepared in step 5 to sit at room temperature for 60 minutes. • 7. After 60 minutes, pipette 25 μl of the mix from step 5 into all wells with the cells. • 8. Shake the plates for 2-5 minutes to ensure the complete mixing of the ProteasomeGlo reagent with the cells. • 9. Leave the plates in the dark for 10-15 minutes. • 10. Measure the luminescence read-out using the Viktor and the protocol “Luminescence_384Well_0.2 sec”. (Note: The Protoeasome-GloTM Reagent (combined Proteasome-GloTM Substrate, Proteasome-GloTM Buffer and Luciferin Detection Reagent) can be stored at 4° C. or -20° C. for 1 month with minimal loss of activity.)

[5] = system: A549 (human lung carcinoma cell line); assay: Glo assay of A549 cells (Table 3; ProteasomeGlo plating scheme); format: cell-based; details: Homo sapiens; A549 cells; read-out: PGLo A549
In short: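 Luminescent read-out of cellular chymotrypsin-like proteasome activity: cells exposed to compound 105 min at 37° C., 5% CO2, then given Suc-LLVY-Glo reagent, shaken 2-5 min and kept dark 10-15 min before reading. Values are IC50 [nM].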

[6] = system: hPMBC; assay: Chymotrypsin-like ProteasomeGlo assay in hPBMC; format: cell-based; details: Homo sapiens; read-out: Pglo hPBMC
Source text: Chymotrypsin-like ProteasomeGlo assay in the B-cells isolated from PBMC's following compound addition (IC50). • 1. PBMC's will be isolated from human blood followed by B-cell isolation from the PBMC's using the Miltenyi Isolation Kit. • 2. This experiment will use the Chymotrypsin-like ProteasomeGlo read-out to generate IC50's following compound treatment. • 3. Dilute all compounds 1:100 for the assay. • 4. […] Repeat the DMSO transfer with lane 12. • 5. Lane 12 should not be seeded with any cells. Only medium! • 6. For all steps, make sure the samples and reagents remain cool! • 7. While dealing with the buffy coats, be careful to not let any exposed skin to be in direct contact with the blood.
For the initial steps and to make processing the buffy coats easier, separately process the buffy coats. • a. Cut the tube attached to the buffy coats carefully using a clean, sterile and fresh scalpel. • b. Transfer the blood into 2 individual 50 ml falcons. • c. Add an equal volume of DPBS to the blood in the falcons. • d. Add ˜20 ml of lymphocyte separating medium to two 50 ml falcons. • e. Carefully pour 15-20 ml of the blood+DPBS mix from step c. onto the lymphocyte separating medium from step d. • f. Centrifuge the falcons with the lymphocyte separating medium+blood mix at 800×g for 15 minutes using a swing-out rotor. • g. Following centrifugation, carefully remove the falcons from the centrifuge. • h. The following layers will be observed: • i. Aspirate the plasma layer off carefully without disturbing the different layers. • j. Remove the cell pellet using a pipette into two fresh 50 ml falcons. • k. Fill the falcons with the cells up to 50 ml with DPBS. • l. Centrifuge the falcons at 250×g for 10 minutes using a swing-out rotor (Brake-off). • m. Aspirate the complete DPBS off the cells without disturbing the cell pellet at the bottom of the falcon. • n. Re-suspend the cell pellet in 10 ml of 1×RBC lysis buffer. • o. Incubate the falcons at room temperature in the dark for 10 minutes. • p. After RBC lysis, centrifuge the tubes at 250×g for 10 minutes using a swing-out rotor (brake-off). • (*Note: If the cell pellet is still red or light red, repeat steps n. to p.!) • q. Re-suspend the cell pellet in DPBS up to 50 ml in the falcon. • r. Centrifuge the falcons at 250×g for 10 minutes using a swing-out rotor (Brake-off). • s. Aspirate the DPBS off the cells without disturbing the cell pellet at the bottom of the falcon. • t. Repeat the wash step as described in steps q. to s. 2× times more (total number of washes is 3×). • u. Aspirate the DPBS completely off the cell pellet after the last wash without disturbing the cell pellet. • v. Re-suspend the cell pellet in 20 ml of PBMC cell medium. • w.
• a. Remove the plates with cells from the incubator. • b. Take all the plates including the compound plate, intermediate plate and Staurosporine plate to the ECHO. • c. Click on “Open” in the ECHO software and select the protocol “QLI5_25ul_30 uM-Grenier”. • d. Follow the on-screen prompts and instructions once you click “Start” to insert the compound plate, intermediate plate and destination plates. • e. Change the final number of destination plates on the program. • f. Follow the on-screen prompts and instructions once you click “Start” to load the Staurosporine and destination plates. • g. Once all the compounds, DMSO and Staurosporine have been transferred, place the destination plates in a wet tissue box. • h. Place the destination plates back into the incubator and incubate at 37° C., 5% CO2 for 105 minutes. • i. Re-seal all the compound+Stauro diamond and intermediate plates and store in the dark. Chymotrypsin like ProteasomeGlo Assay • 1. Thaw the components of the ProteasomeGlo assay at room temperature including the ProteasomeGlo Buffer, the lyophilized Luciferin Detection Reagent and the Suc-LLVY-Glo Substrate. • 2. […]

[7] = system: B-cells isolated from PBMC's; assay: Chymotrypsin-like ProteasomeGlo assay in B-cells isolated from PBMCs; format: cell-based, human; details: Homo sapiens; B-cells isolated from PBMC's; read-out: Pglo B-Cell
Source text: PBMC's will be isolated from human blood followed by B-cell isolation from the PBMC's using the Miltenyi Isolation Kit. • 2. This experiment will use the Chymotrypsin-like ProteasomeGlo read-out to generate IC50's following compound treatment. • 3. Dilute all compounds 1:100 for the assay. • 4. […] Repeat the DMSO transfer with lane 12. • 5. Lane 12 should not be seeded with any cells. Only medium! • 6. For all steps, make sure the samples and reagents remain cool! • 7. While dealing with the buffy coats, be careful to not let any exposed skin to be in direct contact with the blood. […] PBMC isolation followed by B-cell isolation using the Miltenyi Kit • Day 2: B-cell plating, ECHO transfer and ProteasomeGlo assay For the initial steps and to make processing the buffy coats easier, separately process the buffy coats. • a. Cut the tube attached to the buffy coats carefully using a clean, sterile and fresh scalpel. • b. Transfer the blood into 2 individual 50 ml falcons. • c. Add an equal volume of DPBS to the blood in the falcons. • d. Add 20 ml of lymphocyte separating medium to two 50 ml falcons. • e. Carefully pour 15-20 ml of the blood+DPBS mix from step c. onto the lymphocyte separating medium from step d. • f. Centrifuge the falcons with the lymphocyte separating medium+blood mix at 800×g for 15 minutes using a swing-out rotor. • g. Following centrifugation, carefully remove the falcons from the centrifuge. • h. The following layers will be observed: • i. Aspirate the plasma layer off carefully without disturbing the different layers. • j. Remove the cell pellet using a pipette into two fresh 50 ml falcons. • k. Fill the falcons with the cells up to 50 ml with DPBS. • l. Centrifuge the falcons at 250×g for 10 minutes using a swing-out rotor (Brake-off). • m. Aspirate the complete DPBS off the cells without disturbing the cell pellet at the bottom of the falcon. • n. Re-suspend the cell pellet in 10 ml of 1×RBC lysis buffer. • o. Incubate the falcons at room temperature in the dark for 10 minutes. • p. After RBC lysis, centrifuge the tubes at 250×g for 10 minutes using a swing-out rotor (brake-off). • (*Note: If the cell pellet is still red or light red, repeat steps n. to p.!) • q. Re-suspend the cell pellet in DPBS up to 50 ml in the falcon. • r. Centrifuge the falcons at 250×g for 10 minutes using a swing-out rotor (Brake-off). • s. Aspirate the DPBS off the cells without disturbing the cell pellet at the bottom of the falcon. • t. Repeat the wash step as described in steps q. to s. 2× times more (total number of washes is 3×). • u. Aspirate the DPBS completely off the cell pellet after the last wash without disturbing the cell pellet. • v. Re-suspend the cell pellet in 20 ml of PBMC cell medium. • w. […] Re-suspend the pellet in volume of the B-cell isolation buffer calculated as follows: • k. Mix well using a 1 ml pipette and incubate the mix on ice for 20 mins. • l. In the meantime, equilibrate one LS Column as follows: • 1. Insert one LS Column into one slot of the separator as depicted in the pictures above. • 2. Place a 50 ml falcon at the bottom of the LS column to collect the wash flow-through. • 3. Add 3 ml of the B-cell isolation buffer into the column. • 4. Allow the buffer to flow-through making sure that the entire volume passes the column and that the column reservoir is empty before the addition of the cells. • 5. Remove the falcon with the flow-through and discard. • m. Place a fresh 50 ml falcon under the LS Column to collect the untouched B-cells isolated from the PBMCs. • n. Apply the entire volume of the cell+antibody+microbeads mix to the LS Column. • o. Collect the flow-through from each application of the mix into the same 50 ml falcon under the LS Column. • p. Once the complete volume of the cell+antibody+microbead mix has been passed through, proceed to washing of the column. • q. Add 3 ml of the B-cell isolation buffer to the LS Column and allow the buffer to flow-through. […]

| SMILES | pIC50 [1] | pIC50 [2] | pIC50 [3] | pIC50 [4] | pIC50 [5] | pIC50 [6] | pIC50 [7] |
| --- | --- | --- | --- | --- | --- | --- | --- |
| Cc1ccc2cc1CNC(=O)[C@H](CCc1ccccc1)NC(=O)CCCC(=O)N1CCCC(CCO2)C1 (stereo partly drawn) [Compound 19, (9S)-5^4-methyl-9-phenethyl-4-oxa-7,10-diaza-1(3,1)-piperidina-5(1,3)-benzenacyclopentadecaphane-8,11,15-trione] | > 7.00 | 5.30 to 6.00 | > 7.00 | 6.00 to 6.30 | 5.30 to 6.00 | – | – |
| CC(=O)N[C@H]1CC(=O)N2CCCC(C2)Oc2ccc(C)c(c2)CNC(=O)[C@H](CCc2ccccc2)NC1=O (stereo partly drawn) [Compound 255, N-((7S,10S)-3^4-methyl-6,9,12-trioxo-7-phenethyl-2-oxa-5,8-diaza-1(3,1)-piperidina-3(1,3)-benzenacyclododecaphane-10-yl)acetamide] | – | 6.30 to 7.00 | – | – | < 5.30 | < 5.30 | – |
| Cc1cc(C)c2cc1CNC(=O)[C@H](CCc1ccccc1)NC(=O)CCC(=O)N1CCCC(CCO2)C1 (stereo partly drawn) [Compound 59, (9R)-5^4,5^6-dimethyl-9-phenethyl-4-oxa-7,10-diaza-1(3,1)-piperidina-5(1,3)-benzenacyclotetradecaphane-8,11,14-trione] | – | 5.30 to 6.00 | – | – | – | – | 6.30 to 7.00 |
